{"source": "paper PMC5788402", "about": "“Impact of Target Warhead and Linkage Vector on Inducing Protein Degradation: Comparison of Bromodomain and Extra-Terminal (BET) Degraders Derived from Triazolodiazepine (JQ1) and Tetrahydroquinoline (I-BET726) BET Inhibitor Scaffolds” (Journal of Medicinal Chemistry, 2017)", "key": {"[1]": {"target": "T1, Brd4 (Homo sapiens, UniProt O60885)", "T1 construct": "endogenous in cells; host or cells: MV4;11; HL60", "experiment": "Brd4 depletion in HL60 (immunoblot)", "format": "cell-based"}, "[2]": {"target": "VCB / Brd4^BD2 ternary complex (Homo sapiens, UniProt O60885+P40337)", "experiment": "ITC ternary titration, VCB into Brd4^BD2–PROTAC complex", "format": "binding"}, "[3]": {"target": "Brd4^BD2 (Homo sapiens, UniProt O60885)", "experiment": "ITC binary titration, Brd4^BD2 into PROTAC", "format": "binding", "settings": "Brd4^BD2 in syringe, PROTAC in cell"}, "[4]": {"target": "VHL-EloC-EloB protein (VCB) (Homo sapiens, UniProt P40337)", "experiment": "ITC binary titration, VCB into PROTAC", "format": "binding", "settings": "VCB in syringe, PROTAC in cell"}, "[5]": {"settings": "ternary, VCB in syringe, Brd4^BD2–PROTAC in cell"}}}
{"smiles": "Cc1sc2c(c1C)C(c1ccc(Cl)cc1)=N[C@@H](CC(=O)OC(C)(C)C)c1nnc(C)n1-2", "note": "[compound 3]", "values": [{"measurement": "Brd4 depletion (%) HL60", "setting": "[1]", "value": "–243/20%"}]}
{"smiles": "Cc1ncsc1-c1ccc(CNC(=O)[C@@H]2C[C@@H](O)CN2C(=O)[C@@H](NC(=O)COCCOCCNC(=O)C[C@@H]2N=C(c3ccc(Cl)cc3)c3c(sc(C)c3C)-n3c(C)nnc32)C(C)(C)C)cc1", "note": "[compound 5, (2S,4R)-1-((S)-2-(tert-Butyl)-14-((S)-4-(4-chlorophenyl)-2,3,9-trimethyl-6H-thieno[3,2-f][1,2,4]triazolo[4,3-a][1,4]diazepin-6-yl)-4,13-dioxo-6,9-dioxa-3,12-diazatetradecanoyl)-4-hydroxy-N-(4-(4-methylthiazol-5-yl)benzyl)pyrrolidine-2-carboxamide]", "values": [{"measurement": "α", "setting": "[2]; cooperativity, ratio between binary and ternary Kd, Brd4^BD2", "value": 5.7}, {"measurement": "cooperativity (α) Brd4–BD2", "setting": "[2]; ternary complex formation with VCB and Brd4^BD2, as tabulated in Table 2", "value": 5.7}, {"measurement": "ΔpKd ± uncertainty", "setting": "[2]; ternary vs binary, Brd4^BD2", "value": "0.78 ± 0.16"}, {"measurement": "stoichiometry N", "setting": "[2]; [5]", "value": "0.76 ± 0.06"}, {"measurement": "ΔG", "setting": "[2]; [5]", "value": "–10.4 ± 0.2 kcal·mol^–1"}, {"measurement": "ΔH", "setting": "[2]; [5]", "value": "–5.36 ± 0.77 kcal·mol^–1"}, {"measurement": "–TΔS", "setting": "[2]; [5]", "value": "–5.05 ± 0.62 kcal·mol^–1"}, {"measurement": "stoichiometry N", "setting": "[3]", "value": "0.81 ± 0.04"}, {"measurement": "ΔG", "setting": "[3]", "value": "–10.6 ± 0.06 kcal·mol^–1"}, {"measurement": "ΔH", "setting": "[3]", "value": "–11.2 ± 0.04 kcal·mol^–1"}, {"measurement": "stoichiometry N", "setting": "[4]", "value": "0.8 ± 0.05"}, {"measurement": "ΔG", "setting": "[4]", "value": "–9.34 ± 0.10 kcal·mol^–1"}, {"measurement": "ΔH", "setting": "[4]", "value": "–5.72 ± 0.47 kcal·mol^–1"}, {"measurement": "–TΔS", "setting": "[4]", "value": "–3.61 ± 0.37 kcal·mol^–1"}]}
